Test results reported in patent publication US20170266284A1, “PERSONALIZED METHODS FOR TREATING DISEASE BY RADIOSENSITIZATION” (Shuttle Pharmaceuticals, LLC, priority 2014, published 2017).
Values joined by “and” are separate entries in the source; they are usually repeats but may differ in a detail not shown here. Equal entries are not always repeated.

How the values were obtained:
[1] = test system: clinical Stage 2 and 3 rectal cancers; settings: cited from earlier work; for patients achieving tumor (T stage) downstaging: pre-operative chemoradiation, continuous infusion 5-FU or twice daily capecitabine
[2] = test system: cells; settings: compared to cells without the defective DNA; cited from earlier work
[3] = test system: proliferating normal tissues (bone marrow and intestine); settings: daily oral IPdR compared to continuous infusion IUdR; cited from earlier work
[4] = multiple daily oral IPdR dosing, pre-clinical; cited from earlier work
[5] = test system: subcutaneous xenografts of human glioblastoma cell lines and human colorectal cancer cell lines; settings: daily oral IPdR compared to continuous infusion IUdR; cited from earlier work
[6] = test system: locally advanced rectal cancer; experiment: Concomitant daily oral capecitabine and oral IPdR during radiation therapy (proposed); type: in vivo, human; settings: oral IPdR with oral capecitabine during radiation therapy; expected ("may")
Method: This may, in turn, correlate with increased survival and improved quality of life for these patients. By establishing the MTD and documenting the plasma PK data for once daily oral administration of IPdR combined with fractionated radiation therapy (37.5 Gy @ 2.5 Gy fractions over 3 weeks), the daily (or twice daily) IPdR dose may be reduced by two dose levels, while using standard doses of capecitabine (750 mg/M^2) and radiation therapy (50.4-54 Gy @ 1.8 Gy fractions).

[7] = test system: High Grade Sarcomas; experiment: IUdR as radiosensitizer with RT in patients with high grade sarcomas, vs historical controls; type: in vivo, human

O=c1[nH]cc(F)c(=O)[nH]1 [5-FU, 5-fluorouracil]
patients achieving tumor (T stage) downstaging [1]: about 45%

O=c1[nH]c(=O)n([C@H]2C[C@H](O)[C@@H](CO)O2)cc1Br [BUdR, 5-bromo-2′-deoxyuridine]
cells more susceptible to the lethal effects of radiation therapy [2]: two to three fold

O=c1ncc(I)cn1[C@H]1C[C@H](O)[C@@H](CO)O1 [IPdR, 5-iodo-2-pyrimidinone-2′-deoxyribose]
decreased % IUdR-DNA incorporation into proliferating normal tissues (bone marrow and intestine / gut epithelium) [3]: 2-3 fold and 2 fold | acute and subacute normal tissue toxicities [4]: without significant dose-limiting acute and subacute normal tissue toxicities | increased % IUdR-DNA incorporation into tumor tissues [5]: 2-3 fold | pCR rate [6]: > 30%

O=c1[nH]c(=O)n([C@H]2C[C@H](O)[C@@H](CO)O2)cc1I [IUdR, 5-iodo-2′-deoxyuridine]
Median Survival (Months) ([7]; RT + IUdR + Surgery, High Grade Sarcomas (Resectable), RT + Surgery 25%): 45% | Median Survival (Months) ([7]; RT + IUdR, High Grade Sarcomas (Un-Resectable), RT alone <10%): 60% | cells more susceptible to the lethal effects of radiation therapy [2]: two to three fold

CCCCCOC(=O)Nc1nc(=O)n([C@@H]2O[C@H](C)[C@@H](O)[C@H]2O)cc1F [capecitabine]
pCR, local recurrence, and overall survival, comparison with infusional 5-FU ([1]; capecitabine administered twice daily): equivalent to infusional 5-FU | patients achieving tumor (T stage) downstaging [1]: about 45%
